In patent US20220033434A1, “ANDROGEN RECEPTOR NUCLEIC ACIDS AND USES THEREOF” (Avidity Biosciences, Inc., priority 2016, published 2022):
In the oligonucleotide strings, read from the 5' end, every base follows the letter of its sugar. An asterisk marks phosphorothioate; unmarked linkages are phosphodiester. Other units and linkages are bracketed, terminal groups are in braces. A string of capitals states the bases alone. d = 2'-deoxy (DNA); m = 2'-O-methyl; f = 2'-fluoro

Key:
Assay type in all cases: cell-based, human
AR FL(1) = assay: AR protein knock-down by Western blot after siRNA transfection in 22RV1 cells: AR FL(1); conditions: 5 nM siRNA, 50 h post transfection, compared to controls
In short: (§1)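 Each siRNA was tested at a single 5 nM final concentration in 22RV1 and LNCaP prostate cancer cells. After transfection, lysis followed at 50 h and 72 h respectively; AR protein was measured by quantitative fluorescent Western blot against α-tubulin.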

AR-SV(2) = assay: AR protein knock-down by Western blot after siRNA transfection in 22RV1 cells: AR-SV(2); conditions: 5 nM siRNA, 50 h post transfection, compared to controls
In short: as §1

AR-SV(3) = assay: AR protein knock-down by Western blot after siRNA transfection in 22RV1 cells: AR-SV(3); conditions: 5 nM siRNA, 50 h post transfection, compared to controls
In short: as §1

[1] = tested on: AR FL (full length AR T877A LBD mutant); assay: AR protein knock-down by Western blot after siRNA transfection in LNCaP cells: AR FL; conditions: 5 nM siRNA, 72 h post transfection, compared to controls
In short: as §1

AR mRNA [2] = assay: AR mRNA downregulation by RT-qPCR at 5 nM siRNA in 22RV1 cells; conditions: 24 hrs post-transfection
Experimental: (§2) Focusing on siRNAs targeting AR sequences exons 1 and 2, the ability of these siRNAs to downregulate AR mRNA at a concentration of 5 nM was determined by RT-qPCR. For this purpose, siRNAs were transfected into 22RV1 and LNCaP cells as described above. At 24 hrs post-transfection, RNA was harvested from cells using a Qiagen RNeasy® Plus Mini Kit or Stratec InviTrap® RNA Cell HTS96 kit. The concentration of each isolated RNA was determined via A260 measurement using a NanoDrop spectrophotometer. RNA samples were reverse transcribed to cDNA using the High Capacity RNA to cDNA Kit (Life Technologies) according to the manufacturer's instructions. cDNA samples were then quantified by qPCR using AR-specific probes and results normalized to either endogenous β-actin or PPIB using the standard 2^−ΔΔCt method. These studies identified 6 siRNAs that at a concentration of 5 nM down regulated AR mRNA in 22RV1 and LNCaP cells by more than 80% compared to controls (Table 4).

AR mRNA [3] = assay: AR mRNA downregulation by RT-qPCR at 5 nM siRNA in LNCaP cells; conditions: 24 hrs post-transfection
Experimental: as §2

AR mRNA [4] = assay: AR mRNA IC50 and maximal KD, siRNA at various concentrations, LNCaP cells, qPCR probes exon junctions 1/2 or 4/5
Experimental: as §2
(§3) To determine the concentration required to reduce AR expression by 50% (IC50) and maximal KD activity, these siRNAs were transfected into LNCaP, C4-2, and 22RV1 cells at various concentrations starting at 100 nM. C4-2 (MD Anderson) is an LNCaP subline that has been selected for resistance against clinically used AR antagonists (Wu et al., “Derivation of androgen-independent human LNCaP prostatic cancer cell sublines: Role of bone stromal cells,” International J Cancer 1994; 57:406-412). Cells were harvested 48 h post-transfection; RNA was prepared and analyzed as stated above. For these experiments, specific AR qPCR probes located at the exon junctions 1/2 or 4/5 were used that recognize most mRNAs of relevant AR isoforms or primarily full length AR mRNA, respectively. All tested siRNAs lowered AR expression with subnanomolar potency to 70% in 22RV1 cells and to ≥90% in LNCaP and C4-2 cells (Table 5). […]

AR mRNA [5] = assay: AR mRNA IC50 and maximal KD, siRNA at various concentrations, C4-2 cells, qPCR probes exon junctions 1/2 or 4/5
Experimental: as §2, §3

AR mRNA [6] = assay: AR mRNA IC50 and maximal KD, siRNA at various concentrations, 22RV1 cells, qPCR probes exon junctions 1/2 or 4/5
Experimental: as §2, §3

[7] = tested on: Prostate Specific Antigen (PSA); assay: AR and PSA levels by qRT-PCR after siRNA transfection in LNCaP cells; conditions: various concentrations, 3 days after transfection
Text: (§4) To monitor regulation of AR target genes as a consequence of siRNA-mediated changes in AR […], LNCaP cells were transfected with various concentrations of XD-01829 (also referred to as XD-0189), and the levels of AR and the Prostate Specific Antigen (PSA) monitored by qRT-PCR. PSA expression is positively regulated by AR and used clinically as a biomarker for AR activity in prostate cancer patients. […] A similar experiment compared the expression of AR, PSA and the Prostate-Specific Membrane Antigen (PSMA) in response to treatment with the AR antagonist Enzalutamide or AR siRNA XD-01829 (or XD-0189). PSMA expression is negatively regulated by AR. For these experiments, hormone therapy resistant 22RV1 cells were transfected with 5 nM of either a scrambled control siRNA (negative control, Enzalutamide group) or XD-01829 (or XD-0189) as described above. After incubation for 24 hours, the negative control and XD-01829 (or XD-0189) groups were treated with DMSO, and the enzalutamide group with 10 μM Enzalutamide. After incubation for 20 hours RNAs were prepared as outlined above and AR, PSA, and PSMA levels evaluated by qRT-PCR.

[8] = tested on: AR target gene expression (PSA, PSMA); assay: AR, PSA and PSMA levels by qRT-PCR in hormone therapy resistant 22RV1 cells, siRNA versus Enzalutamide; conditions: 5 nM siRNA (24 h + 20 h DMSO) or 10 μM Enzalutamide 20 hours
Text: as §4

[9] = AR qPCR probe at exon junction 1/2, 48 h post-transfection
[10] = AR qPCR probe at exon junction 1/2, 48 h post-transfection, read-out: IC50 (nM), LNCaP, Exon 1/2
[11] = AR qPCR probe at exon junction 4/5, 48 h post-transfection
[12] = AR qPCR probe at exon junction 4/5, 48 h post-transfection, read-out: IC50 (nM), LNCaP, Exon 4/5
[13] = AR qPCR probe at exon junction 1/2, 48 h post-transfection, read-out: IC50 (nM), C4-2, Exon 1/2
[14] = AR qPCR probe at exon junction 4/5, 48 h post-transfection, read-out: IC50 (nM), C4-2, Exon 4/5
[15] = AR qPCR probe at exon junction 1/2, 48 h post-transfection, read-out: IC50 (nM), 22RV1, Exon 1/2
[16] = AR qPCR probe at exon junction 4/5, 48 h post-transfection, read-out: IC50 (nM), 22RV1, Exon 4/5

XD-01829: AR siRNA with chemical modification, Id # 2822; sense X05353 (SEQ ID NO: 183), antisense X05354 (SEQ ID NO: 184) (sense mGmUfGmUfCmAfCmUfAmUfGmGfAmGfCmUfCmUfCdT*dT; antisense fGfAmGfAmGfCmUfCmCfAmUfAmGfUmGfAmCfAmCdT*dT)
% KD AR Protein 22RV1 AR FL(1) (AR FL(1)): 97% | % KD AR Protein 22RV1 AR-SV(2) (AR-SV(2)): 99% | % KD AR Protein 22RV1 AR-SV(3) (AR-SV(3)): 97% | % KD AR Protein LNCaP AR FL [1]: 91% | % KD AR RNA 22RV1 (AR mRNA [2]): 86% | % KD AR RNA LNCaP (AR mRNA [3]): 92% | max KD (%), LNCaP, Exon 1/2 (AR mRNA [4]; [9]): 94.2% | IC50 (AR mRNA [4]; [10]): 0.016 nM | max KD (%), LNCaP, Exon 4/5 (AR mRNA [4]; [11]): 92.3% | IC50 (AR mRNA [4]; [12]): 0.016 nM | max KD (%), C4-2, Exon 1/2 (AR mRNA [5]; [9]): 94.7% | IC50 (AR mRNA [5]; [13]): 0.013 nM | max KD (%), C4-2, Exon 4/5 (AR mRNA [5]; [11]): 92.6% | IC50 (AR mRNA [5]; [14]): 0.011 nM | max KD (%), 22RV1, Exon 1/2 (AR mRNA [6]; [9]): 72.1% | IC50 (AR mRNA [6]; [15]): 0.038 nM | max KD (%), 22RV1, Exon 4/5 (AR mRNA [6]; [11]): 68.1% | IC50 (AR mRNA [6]; [16]): 0.018 nM | AR and PSA levels [7]: highly correlated | regulation of AR target gene expression (PSA, PSMA) [8]: regulate AR target gene expression

XD-01825: AR siRNA with chemical modification, Id # 2814; sense X05345 (SEQ ID NO: 175), antisense X05346 (SEQ ID NO: 176) (sense mGmCfUmUfCmUfGmGfGmUfGmUfCmAfCmUfAmUfGdT*dT; antisense fCfAmUfAmGfUmGfAmCfAmCfCmCfAmGfAmAfGmCdT*dT)
% KD AR Protein 22RV1 AR FL(1) (AR FL(1)): 90% | % KD AR Protein 22RV1 AR-SV(2) (AR-SV(2)): 93% | % KD AR Protein 22RV1 AR-SV(3) (AR-SV(3)): 95% | % KD AR Protein LNCaP AR FL [1]: 91% | % KD AR RNA 22RV1 (AR mRNA [2]): 91% | % KD AR RNA LNCaP (AR mRNA [3]): 82% | max KD (%), LNCaP, Exon 1/2 (AR mRNA [4]; [9]): 82.5% | IC50 (AR mRNA [4]; [10]): 0.02 nM | max KD (%), LNCaP, Exon 4/5 (AR mRNA [4]; [11]): 84.9% | IC50 (AR mRNA [4]; [12]): 0.018 nM | max KD (%), C4-2, Exon 1/2 (AR mRNA [5]; [9]): 83.5% | IC50 (AR mRNA [5]; [13]): 0.024 nM | max KD (%), C4-2, Exon 4/5 (AR mRNA [5]; [11]): 84.6% | IC50 (AR mRNA [5]; [14]): 0.026 nM | max KD (%), 22RV1, Exon 1/2 (AR mRNA [6]; [9]): 53.5% | IC50 (AR mRNA [6]; [15]): 0.067 nM | max KD (%), 22RV1, Exon 4/5 (AR mRNA [6]; [11]): 60.7% | IC50 (AR mRNA [6]; [16]): 0.055 nM
